pIC50: −log10 of the molar value.
Key:
[1] = biological target: T1, α2 receptors (Rattus norvegicus, UniProt P22909); assay: affinity to α2 receptors (test described by Djop, J. Neurochemistry, 41, p. 710 (1983)); assay type: binding; settings: α2 receptor; IC means inhibitory concentration
T1 construct: from tissue
T1 sequence (P22909 1-465): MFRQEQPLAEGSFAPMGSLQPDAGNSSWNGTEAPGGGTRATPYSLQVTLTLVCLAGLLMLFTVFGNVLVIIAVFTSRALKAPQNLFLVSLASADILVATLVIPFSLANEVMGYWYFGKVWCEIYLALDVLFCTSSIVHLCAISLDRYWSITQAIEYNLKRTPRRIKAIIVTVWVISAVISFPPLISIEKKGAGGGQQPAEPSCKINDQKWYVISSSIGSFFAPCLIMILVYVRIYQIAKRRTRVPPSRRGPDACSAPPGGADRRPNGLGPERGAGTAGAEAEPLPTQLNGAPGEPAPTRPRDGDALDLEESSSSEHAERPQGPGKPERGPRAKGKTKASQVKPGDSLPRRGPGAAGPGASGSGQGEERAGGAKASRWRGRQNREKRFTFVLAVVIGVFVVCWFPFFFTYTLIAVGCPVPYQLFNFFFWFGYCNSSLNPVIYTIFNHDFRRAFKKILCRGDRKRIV
From the text: (§1) The activity of the compounds of the present invention has been confirmed by their affinity to α2 and D1 receptors, according to the tests described by Djop, J. Neurochemistry, 41, p. 710 (1983) and by Billard et al., Life Science, p. 35 (1985).

[2] = biological target: T2, D1 receptors (Rattus norvegicus, UniProt P18901); assay: affinity to D1 receptors (test described by Billard et al., Life Science, p. 35 (1985)); assay type: binding; settings: D1 receptor; IC means inhibitory concentration
T2 construct: from tissue
T2 sequence (P18901 whole entry): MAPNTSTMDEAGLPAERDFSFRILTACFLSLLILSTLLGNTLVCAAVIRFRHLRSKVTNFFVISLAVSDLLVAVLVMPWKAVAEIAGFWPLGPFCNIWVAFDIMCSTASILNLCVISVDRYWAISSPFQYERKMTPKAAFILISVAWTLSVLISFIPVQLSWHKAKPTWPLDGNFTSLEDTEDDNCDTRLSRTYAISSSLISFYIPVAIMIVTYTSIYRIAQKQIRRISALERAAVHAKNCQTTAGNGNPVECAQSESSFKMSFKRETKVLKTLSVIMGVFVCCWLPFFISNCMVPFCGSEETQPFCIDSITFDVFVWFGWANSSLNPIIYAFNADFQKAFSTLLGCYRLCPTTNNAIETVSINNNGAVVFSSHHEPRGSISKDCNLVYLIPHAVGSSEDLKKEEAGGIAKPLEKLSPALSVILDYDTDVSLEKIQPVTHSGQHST
From the text: as §1

SMILES | pIC50 [1] | pIC50 [2]
CN1C(CCN2CC(=O)NC2=O)CC2c3cccc4[nH]cc(c34)CC21 [Example 10, D-nor-6-methyl-7-(2,4-dioxo-1-imidazolidinyl-ethyl)-ergoline] | 10.30 | 9.40
CCNC(=O)N(CCCN(C)C)C(=O)CC1CC2c3cccc4[nH]cc(c34)CC2N1C [Example 6, D-nor-6-methyl-7[N-(3-dimethylaminopropyl)-N-(ethylcarbamoyl)]-carbamoylmethyl-ergoline] | 9.40 | 9.05
CN1C(CCNC(=O)OCc2ccccc2)CC2c3cccc4[nH]cc(c34)CC21 [Example 8, D-nor-6-methyl-7-benzyloxycarbamoylethyl-ergoline] | 10.40 | 9.15

From patent US4861793A, “D-nor-7-ergoline derivatives having anti-Parkinson and antipsychosis activity and pharmaceutical compositions containing them” (Farmitalia Carlo Erba, S.p.A, priority 1986, dated 1989)
